Reference: publication PMC6833013 (Molecules, 2019)

Assays:
[1] = tested on: Bacillus subtilis MB964; type: cell-based
[2] = tested on: HepG2; assay: cells; type: cell-based; conditions: Homo sapiens, HepG2, 24 h, read-out: IC50 HepG2
[3] = tested on: MCF-7; assay: cells; type: cell-based; conditions: Homo sapiens, MCF7, 24 h, read-out: IC50 MCF-7
[4] = tested on: RCC4-VA; assay: cells; type: cell-based; conditions: Homo sapiens, 24 h, read-out: IC50 RCC4-VA
[5] = tested on: RCC4-VHL; assay: cells; type: cell-based; conditions: Homo sapiens, 24 h, read-out: IC50 RCC4-VHL
[6] = tested on: Fa2N4; assay: cells; type: cell-based; conditions: Homo sapiens, Fa2N-4, 24 h, read-out: IC50 Fa2N4
[7] = tested on: A549; assay: cells; type: cell-based; conditions: Homo sapiens, A549, 24 h, read-out: IC50 A549
[8] = tested on: HT29; assay: cells; type: cell-based; conditions: Homo sapiens, HT-29, 24 h, read-out: IC50 HT29
[9] = tested on: human cell lines

## CCC(=O)OC1CC2OC3C=C(C)CCC3(C)C1(C)C2(O)CO [Compound 16, (4R,12S)-12-Hydroxy-12-hydroxymethyltrichothec-9-en-4-yl propionate]
[1]
  B. subtilis MB964 inhibition halo: no halo
[2]
  IC50: > 20 µg/mL
[3]
  IC50: > 20 µg/mL
[4]
  IC50: > 20 µg/mL
[5]
  IC50: > 20 µg/mL
[6]
  IC50: > 20 µg/mL
[7]
  IC50: > 20 µg/mL
[8]
  IC50: > 20 µg/mL
[9]
  cytotoxic activity in all the cell lines tested: lost all their activity

## CC(=O)OC1CC2OC3C=C(C)CCC3(C)C1(C)C2(O)CO [Compound 3, (4R,12S)-12-Hydroxy-12-(hydroxymethyl)trichothec-9-en-4-yl acetate]
[1]
  B. subtilis MB964 inhibition halo: no halo
[2]
  IC50: > 20 µg/mL
[3]
  IC50: > 20 µg/mL
[4]
  IC50: > 20 µg/mL
[5]
  IC50: > 20 µg/mL
[6]
  IC50: > 20 µg/mL
[7]
  IC50: > 20 µg/mL
[8]
  IC50: > 20 µg/mL
[9]
  cytotoxic activity in all the cell lines tested: lost all their activity
